Measurements taken from patent US20220257491A1, “Prebiotic Oral Care Compositions and Methods” (Colgate-Palmolive Company, priority 2021, published 2022).
“And” between values parts separate entries of the source, which are not always exact repeats. Identical values can stand only once. Marks after values point to notes of the source that are not given here.

Assays:
Format in all cases: cell-based
[1] = tested on: A. actinomycetemcomitans; assay: Multi-species biofilm composition: absolute abundance of A. actinomycetemcomitans; settings: mean±SD n=3
Method: (§1) Biofilms are grown vertically on Calcium Deficient Hydroxyapatite (CAD-HA) disks (Hitemco Medical, Old Bethpage, USA) using the Amsterdam Active Adhesion model. Biofilms are allowed to establish during 24 h (37° C., 170 rpm) under micro-aerophilic conditions (6% O2, 7% CO2, 7% H2, 80% N2). After this 24 h, disks are rinsed 3 times a day for 3 minutes (RT, 250 rpm), for 3 consecutive days, by transferring the lid containing the disks to a new 24-well plate containing 2 mL/well of the appropriate substrate solution. As a negative control, PBS (pH 5.7) without substrate supplementation is used. After each rinsing step, disks are shortly dip-rinsed in a new 24-well plate containing fresh modified BHI medium (2 mL/well) to remove remaining substrate traces. Subsequently, the lid is transferred to another 24-well plate containing fresh modified BHI medium (2 mL/well), followed by incubation (micro-aerophilic, 37° C., 170 rpm) until the next rinsing step.
(§2) NADM, N-acetyl-D-glucosamine (“NADG”) and D-(+)-mannose are selected to determine their effects on multi-species biofilm composition. […] decrease in absolute numbers in at least four of the pathogenic bacterial species tested in the assay, compared to the control, the results of which are described in Table 1 below. Absolute abundances of bacterial species are shown as mean±SD (n=3) logarithmic values of the genome equivalents per millilitre (log(Geq/mL)).

[2] = tested on: human oral keratinocytes (HOK-18A); assay: Inflammatory mediator gene expression in keratinocytes exposed to substrate-treated biofilms; settings: relative to control (=1), geometric mean (95% C.I.) n=3
Method: Cultures of immortalized human oral keratinocytes (HOK-18A) are grown. The relative inflammatory potential of the substrate-treated multi-species biofilms is evaluated by analyzing the expression of five inflammatory mediator genes in human oral keratinocytes (HOKs) exposed to the substrate-treated biofilms. […] The IL-8 levels in the cellular supernatant are determined as well. RNA is converted to cDNA and relative expression of inflammatory mediator genes is determined as described above with respect to the cellular housekeeping gene (3-actin.
In HOKs exposed to substrate-treated (substrate concentrations of 1 M) multi-species biofilms, mostly decreases in inflammatory mediator gene expression are observed and measured via SYBR RT-qPCR, the results of which are detailed in Table 6.
All substrates are dissolved in PBS at a concentration of 1 M (upper part) or 1% (w/v) (lower part). Values between 0 and 1 represent relative downregulation, values >1 represent relative upregulation. […] For such values, statistically significant differences between two experimental conditions are marked with ‘#1’ (vs. NADM), ‘#2’ (vs. NADG), ‘#3’ (vs. D-(+)-mannose) (P<0.05).

[3] = tested on: F. nucleatum virulence genes; assay: Multi-species biofilm virulence gene expression, SYBR RT-qPCR: F. nucleatum; settings: for Fold Change in virulence gene expression: ABC transp. perm. / Fold Change in virulence gene expression: EF-G / Fold Change in virulence gene expression: but.-coA transf. / Fold Change in virulence gene expression: hemin receptor / Fold Change in virulence gene expression: hemolysin / Fold Change in virulence gene expression: ompA / Fold Change in virulence gene expression: transposase: relative to control (=1), 2^-ΔΔCt, geometric mean n=3
Method: as §1
(§3) The expression of 33 virulence genes from 4 periodontal pathogens is analysed to evaluate the relative virulence of the substrate-treated biofilms. For all three substrates, virulence gene expression is determined relatively to the control, and these values are also compared between substrates when this is relevant (Tables 5a-5d).

[4] = tested on: S. sobrinus; assay: Multi-species biofilm composition: absolute abundance of S. sobrinus; settings: mean±SD n=3
Method: as §1, §2

[5] = tested on: V. parvula; assay: Multi-species biofilm composition: absolute abundance of V. parvula; settings: mean±SD n=3
Method: as §1
(§4) NADM, N-acetyl-D-glucosamine (“NADG”) and D-(+)-mannose are selected to determine their effects on multi-species biofilm composition. Repeated rinsing of the biofilms with the substrates at a concentration of 1M results in a significant decrease in absolute numbers in at least four of the pathogenic bacterial species tested in the assay, compared to the control, the results of which are described in Table 1 below. Absolute abundances of bacterial species are shown as mean±SD (n=3) logarithmic values of the genome equivalents per millilitre (log(Geq/mL)).

[6] = tested on: A. viscosus; assay: Multi-species biofilm composition: absolute abundance of A. viscosus; settings: mean±SD n=3
Method: as §1, §2

[7] = tested on: multi-species biofilms; assay: Multi-species biofilm organic acid balances (supernatant); settings: >0 production, <0 consumption, mean±SD n=3
Method: as §1
To examine the effect of NADM and the influence of the orientation and absence/presence of the N-acetyl group on organic acid production and consumption, supernatant samples from substrate-treated or untreated multi-species biofilms are analysed. […] When comparing relevant significant differences between substrate conditions, an increase in acetate production is observed for NADM compared to D-(+)-mannose (3084±174 vs. 1934±56 mg/L).

[8] = tested on: A. naeslundii; assay: Multi-species biofilm composition: absolute abundance of A. naeslundii; settings: mean±SD n=3
Method: as §1, §4

[9] = tested on: P. intermedia virulence genes; assay: Multi-species biofilm virulence gene expression, SYBR RT-qPCR: P. intermedia; settings: for Fold Change in virulence gene expression: DnaJ / Fold Change in virulence gene expression: DnaK / Fold Change in virulence gene expression: ECF / Fold Change in virulence gene expression: GroES / Fold Change in virulence gene expression: HtpG / Fold Change in virulence gene expression: KpsD / Fold Change in virulence gene expression: adpc / Fold Change in virulence gene expression: clpB / Fold Change in virulence gene expression: inpA / Fold Change in virulence gene expression: phg: relative to control (=1), 2^-ΔΔCt, geometric mean n=3
Method: as §1, §3

[10] = biofilm rinsed with substrate 1%
[11] = biofilm rinsed with substrate 1M

CC(=O)N[C@H]1C(O)O[C@H](CO)[C@@H](O)[C@@H]1O (stereo partly drawn) [NADG, N-acetyl-D-glucosamine, reference compound]
Absolute abundance Aa (A. actinomycetemcomitans) ([1]; substrate 1%(w/v) in PBS): 9.11 ± 0.20 log(Geq/mL)
Absolute abundance Aa (A. actinomycetemcomitans) ([1]; substrate 1 M in PBS): 6.6 ± 0.93 log(Geq/mL)
Fold change in inflammatory mediator gene expression: IL-1β [2, 10]: 0.71 (0.38-1.33) fold
Fold change in inflammatory mediator gene expression: IL-6 [2, 10]: 0.73 (0.58-0.93) fold
Fold change in inflammatory mediator gene expression: IL-8 [2, 10]: 1.00 (0.78-1.27) fold
Fold change in inflammatory mediator gene expression: MMP-8 [2, 10]: 0.52 (0.17-1.60) fold
Fold change in inflammatory mediator gene expression: TNF-α [2, 10]: 0.71 (0.28-1.35) fold
Fold change in inflammatory mediator gene expression: IL-1β [2, 11]: 0.75 (0.55-1.02) fold
Fold change in inflammatory mediator gene expression: IL-6 [2, 11]: 0.57 (0.46-0.71) fold
Fold change in inflammatory mediator gene expression: IL-8 [2, 11]: 0.14 (0.06-0.36)* fold
Fold change in inflammatory mediator gene expression: MMP-8 [2, 11]: 1.28 (0.79-2.08) fold
Fold change in inflammatory mediator gene expression: TNF-α [2, 11]: 0.89 (0.59-1.34) fold
Fold Change in virulence gene expression: ABC transp. perm. ([3]; substrate 1%): 0.33 fold
Fold Change in virulence gene expression: EF-G ([3]; substrate 1%): 0.10 fold
Fold Change in virulence gene expression: but.-coA transf. ([3]; substrate 1%): 0.21 fold
Fold Change in virulence gene expression: hemin receptor ([3]; substrate 1%): 0.19 fold
Fold Change in virulence gene expression: hemolysin ([3]; substrate 1%): 0.79 fold
Fold Change in virulence gene expression: ompA ([3]; substrate 1%): 0.74 fold
Fold Change in virulence gene expression: transposase ([3]; substrate 1%): 0.98 fold
F. nucleatum hemolysin gene, upregulation ([3]; substrate 1 M): 1.9 fold
Fold Change in virulence gene expression: ABC transp. perm. ([3]; substrate 1M): 3.33 fold
Fold Change in virulence gene expression: EF-G ([3]; substrate 1M): 1.45 fold
Fold Change in virulence gene expression: but.-coA transf. ([3]; substrate 1M): 1.21 fold
Fold Change in virulence gene expression: hemin receptor ([3]; substrate 1M): 3.26 fold
Fold Change in virulence gene expression: hemolysin ([3]; substrate 1M): 1.90 fold
Fold Change in virulence gene expression: ompA ([3]; substrate 1M): 1.33 fold
Fold Change in virulence gene expression: transposase ([3]; substrate 1M): 1.27 fold
Absolute abundance S. sobrinus ([4]; substrate 1%(w/v) in PBS): 4.87 ± 0.22 log(Geq/mL)
Absolute abundance S. sobrinus ([4]; substrate 1 M in PBS): 4.16 ± 0.44 log(Geq/mL)
Absolute abundance Vp (V. parvula) ([5]; substrate 1%(w/v) in PBS): 9.77 ± 0.19 log(Geq/mL)
Absolute abundance Vp (V. parvula) ([5]; substrate 1 M in PBS): 10.57 ± 0.24 log(Geq/mL)
Absolute abundance Av (A. viscosus) ([6]; substrate 1%(w/v) in PBS): 7.83 ± 0.31 log(Geq/mL)
Absolute abundance Av (A. viscosus) ([6]; substrate 1 M in PBS): 6.92 ± 0.45 log(Geq/mL)
acetate level in biofilm supernatant ([7]; substrate 1%(w/v)): 379 ± 10 mg/L
butyrate level in biofilm supernatant ([7]; substrate 1%(w/v)): 2238 ± 59 mg/L
formate level in biofilm supernatant ([7]; substrate 1%(w/v)): 4315 ± 198 mg/L
lactate level in biofilm supernatant ([7]; substrate 1%(w/v)): 125 ± 0 mg/L
propionate level in biofilm supernatant ([7]; substrate 1%(w/v)): 2205 ± 89 mg/L
acetate level in biofilm supernatant ([7]; substrate 1 M): 3815 ± 77 mg/L
butyrate level in biofilm supernatant ([7]; substrate 1 M): 1255±51 mg/L and 1255 ± 51*^, #1, 3 mg/L
formate level in biofilm supernatant ([7]; substrate 1 M): 352 ± 18 mg/L
lactate level in biofilm supernatant ([7]; substrate 1 M): 125 ± 0 mg/L
propionate level in biofilm supernatant ([7]; substrate 1 M): 2750 ± 40 mg/L
Absolute abundance An (A. naeslundii) ([8]; substrate 1%(w/v) in PBS): 7.71 ± 0.12 log(Geq/mL)
Absolute abundance An (A. naeslundii) ([8]; substrate 1 M in PBS): 6.52 ± 0.20 log(Geq/mL)
Relative P. intermedia virulence gene expression, downregulation ([9]; substrate 1%(w/v), D-(+)-mannose for 3 genes): unaffected
Fold Change in virulence gene expression: DnaJ ([9]; substrate 1%): 0.7 fold
Fold Change in virulence gene expression: DnaK ([9]; substrate 1%): 0.77 fold
Fold Change in virulence gene expression: ECF ([9]; substrate 1%): 0.48 fold
Fold Change in virulence gene expression: GroES ([9]; substrate 1%): 0.75 fold
Fold Change in virulence gene expression: HtpG ([9]; substrate 1%): 0.46 fold
Fold Change in virulence gene expression: KpsD ([9]; substrate 1%): 0.78 fold
Fold Change in virulence gene expression: adpc ([9]; substrate 1%): 0.67 fold
Fold Change in virulence gene expression: clpB ([9]; substrate 1%): 1.06 fold
Fold Change in virulence gene expression: inpA ([9]; substrate 1%): 0.53 fold
Fold Change in virulence gene expression: phg ([9]; substrate 1%): 0.69 fold
P. intermedia virulence gene expression, increases ([9]; substrate 1 M, range over genes): 2- to 20.3 fold
Fold Change in virulence gene expression: DnaJ ([9]; substrate 1M): 0.64 fold
Fold Change in virulence gene expression: DnaK ([9]; substrate 1M): 2.34 fold
Fold Change in virulence gene expression: ECF ([9]; substrate 1M): 20.32 fold
Fold Change in virulence gene expression: GroES ([9]; substrate 1M): 1.86 fold
Fold Change in virulence gene expression: HtpG ([9]; substrate 1M): 3.40 fold
Fold Change in virulence gene expression: KpsD ([9]; substrate 1M): 1.72 fold
Fold Change in virulence gene expression: adpc ([9]; substrate 1M): 2.65 fold
Fold Change in virulence gene expression: clpB ([9]; substrate 1M): 2.03 fold
Fold Change in virulence gene expression: inpA ([9]; substrate 1M): 4.52 fold
Fold Change in virulence gene expression: phg ([9]; substrate 1M): 0.57 fold
